The record followed here is publication PMC10916400, “Effect of the aggregated protein dye YAT2150 on Leishmania parasite viability” (Antimicrobial Agents and Chemotherapy, 2024).

Data set [1] is described as follows: Solubility screen assay (nephelometry). It counts as physicochemical. The settings on record: PBS with 1% DMSO; read-out: Aqueous solubility. The procedure: The stock solutions (10^‒2 M) of the assayed compounds were diluted to decreased molarity, from 300 μM to 0.1 µM, in a 384-well transparent plate (Greiner Bio-One, Madrid, Spain) with DMSO:PBS (1:99 vol/vol). After 2 h of incubation at 37°C, the plate was read in a NEPHELOstar Plus nephelometer (BMG LABTECH GmbH, Ortenberg, Germany) at 635 nm. The results were adjusted to a segmented regression to obtain the maximum concentration at which the compounds were soluble.

The next data set relates to L. major promastigotes. Briefly: Luciferase assay for free intracellular ATP levels. Format: cell-based, Leishmania major. The settings on record: luciferase-expressing L. major promastigotes, DMNPE-luciferin. The procedure:
The process described in reference ([62]) was followed. Briefly, L. major promastigotes (Friendlin strain) were transfected with the pLEXSY-hyg2.1 expression vector (Jena Bioscience, Jena, Germany) containing a cytoplasmic form of firefly luciferase mutated at its C-terminal tripeptide to prevent its import into the glycosome. Promastigotes were grown in Roswell Park Memorial Institute 1640 medium (RPMI) supplemented with 10% FBS, 2 mM L-glutamine, 1,000 U/mL penicillin/streptomycin (Gibco, Billings, MT, US), and 100 µg/mL hygromycin (InvivoGen, San Diego, CA, US) at 26°C. To assess variation in the intracellular concentration of free ATP, parasites were harvested at the late exponential phase of growth. After two washes with Hanks balanced buffer, parasites were resuspended in the same buffer supplemented with 10 mM D-glucose at 2.2 × 10^7 parasites/mL. After the addition of DMNPE-caged D-luciferin (GoldBio, St. Louis, MO, US) at 50 µM final concentration, the parasite suspension was aliquoted (90 µL/well) into a black 96-microwell plate (Nunc A/S, Roskilde, Denmark), and luminescence readout was monitored in a POLARstar Galaxy microplate reader (BMG LABTECH GmbH) with a luminescence setup. Once the luminescence reached a plateau, 10 µL of a YAT2150 solution at 10× fold its final concentration was added (t0) and the luminescence value at this point was considered as 100%. […]

Data set [2] can be described thus: Human microsomal stability assay. The settings on record: 37°C. Format: in vitro ADME. As for the experimental part: The following components were added in a 96-well microplate in a final volume of 500 µL 50 mM Na/K phosphate buffer, pH 7.4 (stock solutions are indicated in parentheses, dissolved in the same buffer unless otherwise specified): […] NADP (10 mM), 10 µM glucose 6-phosphate (100 mM), […] glucose 6-phosphate dehydrogenase (40 U/mL, dissolved in 5 mM sodium citrate), 3 µM MgCl2·6 H2O (30 mM, dissolved in H2O), 0.8 mg protein/mL of human microsomes (10 mg/mL protein; XenoTech), and 1 µM of test compound (100 µM, dissolved in ACN). Plates were incubated at 37°C and 75 µL samples were taken at 0, 10, 20, 40, and 60 min, to which 75 µL ACN + internal standard (Rolipram) to inactivate the microsomes and 30 µL of 0.5% formic acid in H2O to improve the chromatographic conditions were added, and kept at 4°C. When all the samples were taken, the plate was centrifuged at 46,000 × g for 30 min at 15°C, and UPLC-MS/MS was performed as above, except for the time in 100% B from 1 to 2.5 min, the return to 95% A:5% B from 2.5 to 2.6 min, and the maintenance of this ratio from 2.6 to 3.0 min. Metabolic stability was calculated from the logarithm of the remaining compound at each of the times evaluated.

Data set [3] concerns L. infantum promastigotes. In words: microbe, parasite or virus in culture. Format: cell-based, Leishmania infantum. To be noted: L. infantum promastigotes; for IC50: in vitro. As for the experimental part:
L. infantum (MHOM/ES/2016/CATB101) promastigotes were maintained at 26°C in complete Schneider’s medium (Schneider’s insect medium supplemented with 10% FBS, 25 µg/mL gentamycin, 1% penicillin-streptomycin, and 1% sterile human urine, pH 6.7). For growth inhibition assays, promastigotes were used in the logarithmic growth phase, whereas for the infection of macrophages and generation of amastigotes they were used in the stationary phase. Axenic amastigotes were obtained following established protocols ([40], [57][–][59]); briefly, 1 × 10^7 promastigotes/mL in stationary phase were cultured in Schneider’s insect medium supplemented with 20% FBS, 25 µg/mL gentamycin, and 3.9 g/L of 2-(N-morpholino)ethanesulfonic acid, at pH 5.4 and 37°C. After 48 h, the typical rounded morphology of axenic amastigotes and their flagellum shortening could be observed. This culture was used within a week after its preparation.
In 96-well microtiter plates (Nunclon Delta surface; Thermo Fisher Scientific Inc.), serial dilutions (1:2) of the drugs or peptides were performed, either free or loaded in nanoformulations, in 100 µL of complete Schneider’s medium, to which one volume of 2 × 10^6 logarithmic growth-phase L. infantum promastigotes/mL in the same buffer was added. After 48 h, resazurin sodium salt was incorporated at a final concentration of 0.00125% and the plates were incubated at 26°C for another 24 h, when fluorescence from resorufin was measured as described above.

Another data set is described as follows: in vitro. The settings on record: 37°C. It counts as in vitro ADME. The procedure: Plates (96-well Polypropylene Deep Well Plate; Corning Inc., Somerville, MA, US) containing 100 µL of 5 µM compounds in human plasma (Seralab, Granollers, Spain), pooled from healthy donors and extracted in citrate tubes, were incubated at 37°C for different times (0, 60, 120, and 360 min). Then, 300 µL ACN was added to precipitate plasma protein, and the plate was centrifuged at 4000 × g for 60 min at 4°C. For sample quantification, the resulting supernatant was taken and analyzed by ultra performance liquid chromatography with tandem mass spectrometry (UPLC-MS/MS; ACQUITY Xevo TQD UPLC QSM; Waters) in an ACQUITY BEH C18 column (1.7 µm, 2.1 × 50 mm; Waters). As mobile phase (0.6 mL/min flow rate) was used the following gradient of 0.1% formic acid in water (A) or in ACN (B): 95% A:5% B from 0 to 0.1 min, gradual increase to 100% B from 0.1 to 1 min, maintenance in 100% B from 1 to 2 min, return to 95% A:5% B from 2 to 2.1 min, and maintenance of this ratio from 2.1 to 2.5 min. Compound concentrations were calculated from the MS peak areas.

Bounds are passed on as bounds.

Broadly, the solubility is the concentration that dissolves in the medium under given conditions. What is called fraction remaining is what is left of the initial amount, in per cent. As usually defined, the microsomal CLint is a measure of how fast metabolising enzymes remove a compound, apart from limits set by blood flow. High values mean rapid turnover, low ones slow turnover. For orientation: IC50 means the concentration that inhibits the measured activity by half.

As for `CCN(CC)c1ccc(/C=C/c2cc[n+](CCCCCCCCCC[n+]3ccc(/C=C/c4ccc(N(CC)CC)cc4)c(C)c3)cc2C)cc1` [YAT2150], the solubility at 2 h in data set [1] amounted to 8.5 µM. For the same compound, in the data set with L. major promastigotes, the “concentration beyond which a concentration-dependent reduction in luminescence (ATP) was observed” value is more than 2 µM. Further, in data set [2] (human microsomes), the “t1/2, microsomal stability” value was found to be 1.34 h. In data set [2] (human, microsomes, pH 7.4, human microsomes, after 1 h), this compound gave an amount remaining at 1 h, 1 µM of 55%. For the same compound, in data set [2] (human, microsomes, pH 7.4, human microsomes, read-out: t1/2, microsomal stability), the half-life at 1 µM stood at 1.33 h. Moreover, in data set [2] (pH 7.4, human microsomes), the microsomal CLint at 1 µM was determined as 10.6 µL/min/mg. Also, in data set [3], the “in vitro IC10” value came to 150 nM, the “in vitro IC40” value stood at 300 nM and the IC50 was approximately 500 nM. In data set [3] (Leishmania infantum), this compound registered a concentration for half-maximal inhibition (IC50) of approximately 520 nM. Also, in “in vitro” (human plasma, after 6 h), the “% remaining, plasma stability” value was 91.3%. The fraction remaining at 1 h, 5 µM in the data set “in vitro” (human, plasma, after 1 h, read-out: % remaining, plasma stability) amounted to 100%. Also, the share remaining at 2 h, 5 µM in the data set “in vitro” (human, plasma, after 2 h, read-out: % remaining, plasma stability) was 99.7%. Further, the amount remaining at 6 h, 5 µM in the data set “in vitro” (human, plasma, after 6 h, read-out: % remaining, plasma stability) is 91%.
